Measured values from patent publication US5849737A, “Compositions and methods for treating pain” (priority 1995, dated 1998).
Entries after “also recorded” stand apart in the source; their conditions may differ. Like-named read-outs stand apart in the source and are kept apart here.

Columns and labels:
Solubility = type: physicochemical; conditions: IT vehicle 10% DMSO, 25% propylene glycol, 25% ethanol, 40% saline; injected volume 10 μl
From the text: The free base forms of the compounds of general formula I are not water-soluble; for example, it was necessary to dissolve the free base of 3-hydroxylidocaine in a vehicle containing an empirically determined mixture of ethanol, dimethyl sulfoxide, propylene glycol and saline for application to the rat spinal cord. The physiologically-acceptable salt forms of the compounds of general formula I employed in accordance with the present invention, in contrast, are generally water-soluble to at least some degree, and the solubility properties thereof can be in many cases improved by conjugation. Unlike the free base forms of the compounds of general formula I, the salt forms may be administered by a variety of known routes [e.g., oral intravenous, intrathecal, local (e.g., intraneuromal), epidural, transdermal, etc.] as would be readily appreciated by those skilled in the art. As is conventional practice in the art, the active agent of general formula I is typically administered in a pharmaceutically acceptable carrier or excipient (e.g., saline).

[1] = system: tactile allodynia (paw withdrawal thresholds); assay: Tactile allodynia (50% paw withdrawal threshold, von Frey) after intrathecal drug, L5/L6 spinal nerve ligated rats; type: in vivo, Male Harlan Sprague-Dawley rats
Protocol: Male Harlan Sprague-Dawley rats were used (100-200 g). Rats were housed 2-3 to a cage with corn cob bedding and Purina rat chow and water ad libitum, in a standard facility with a 12 h/ 12 h day/night cycle. After surgical procedures involving chronic indwelling catheter insertion, animals were housed singly to prevent catheter damage.
Rats were allowed to recover 5-7 days before further testing or surgeries.
The catheters were 9 cm in intrathecal length and terminated near the lumbar enlargement. The rostral 3 cm of catheter was tunneled under the skin to externalize between the ears. Rats with neurologic deficits were discarded.
Monoethylglycinexylidide (MEGX) was dissolved in physiologic saline; 3-hydroxylidocaine (3-OH L) was dissolved in DMSO for intravenous administration.
Intravenous drugs were delivered to awake, unrestrained rats by slow infusion using a syringe pump (Harvard apparatus 22). Intrathecal drugs were delivered to awake, briefly restrained rats in a volume of 10 μl, followed by 10 μl of vehicle flush, using a calibrated tubing extension with a 30-gauge adapter fitting the implanted intrathecal catheter, attached to a geared Hamilton 100 μl glass syringe. IT drug delivery was monitored by observing the advancement of a small air bubble down the tubing.
Rats were placed in a plastic cage with an open wire mesh bottom and allowed to accommodate for approximately fifteen minutes. […] In brief, von Frey hairs were sequentially applied using an up-and-down paradigm to the left mid-plantar hindpaw with sufficient force to cause slight filament buckling. Positive responses were noted if the paw was sharply withdrawn. […] Otherwise, PWT were calculated by noting the stimulus level at which the first change in behavior occurred, collecting four additional responses to the continued up-and-down oscillation of stimulus presentation around the response threshold, and interpolating the 50% response threshold. […] The following equation was used to compute %MPE: [formula]
Plasma drug levels and PWT were correlated using linear regression. Serially measured PWT and %MPE were compared using repeated measures ANOVA.

[2] = system: tactile allodynia (paw withdrawal thresholds); assay: Mechanical allodynia after single i.p. dose in SD rats (left L5/L6 spinal nerve ligation); type: in vivo
[3] = DA rats; some species of rats; cited from earlier work
P450 PA(P45OIA2) enzyme = conditions: lidocaine metabolite formation; cited from earlier work
[4] = system: tactile allodynia (paw withdrawal thresholds); assay: Tactile allodynia (50% paw withdrawal threshold, von Frey) after intravenous drug, L5/L6 spinal nerve ligated rats; type: in vivo, Male Harlan Sprague-Dawley rats
From the text: For intravascular access, external jugular catheters were fashioned from PE-50 tubing and inserted into an external jugular vein under halothane/oxygen anesthesia. Arterial catheters were also fashioned from PE-50 with a small bouton 1 cm from the intravascular end for suture securing; they were inserted into a carotid artery, taking care to spare the surrounding nerves. All catheters were flushed with heparinized saline (10 U/ml) and tunneled subcutaneously to emerge at the posterior base of the neck, and capped when not in use. […] Rats were placed in a plastic cage with an open wire mesh bottom and allowed to accommodate for approximately fifteen minutes. A series of 8 von Frey filaments with logarithmically incremental stiffness (0.41, 0.70, 1.20, 2.00, 3.63, 5.50, 8.50, and 15.10 g) (Stoelting, Wood Dale, Ill.) was used to determine the 50% threshold for paw withdrawal to light mechanical stimuli (PWT). In brief, von Frey hairs were sequentially applied using an up-and-down paradigm to the left mid-plantar hindpaw with sufficient force to cause slight filament buckling. Positive responses were noted if the paw was sharply withdrawn. […] Otherwise, PWT were calculated by noting the stimulus level at which the first change in behavior occurred, collecting four additional responses to the continued up-and-down oscillation of stimulus presentation around the response threshold, and interpolating the 50% response threshold. […] The following equation was used to compute %MPE: [formula] Plasma drug levels and PWT were correlated using linear regression. Serially measured PWT and %MPE were compared using repeated measures ANOVA.

[5] = system: tactile allodynia (paw withdrawal thresholds); assay: Mechanical allodynia after single i.p. dose in DA rats (left L5/L6 spinal nerve ligation); type: in vivo
[6] = cited from earlier work

CCN(CC)CC(=O)Nc1c(C)ccc(O)c1C [3-OH L, 3-hydroxylidocaine]
highest dose soluble in the vehicle (Solubility): 58 µg | persistence of allodynia suppression after single IT dose ([1]; 3-OH L 58 μg IT single dose, follow-up period): 5 days | thresholds at 5 days post treatment ([1]; 3-OH L 58 μg IT, N=6, baseline 2.7±0.2, vehicle 2.2±0.5, P=0.0008, unit not given): 9.3±2.5 | PWT at 60 minutes after IT treatment ([1]; 3-OH L 58 μg IT, baseline 2.3±0.39 g, P<0.0001): 10.66 ± 2.3 g | duration of effect on allodynia, IT route ([1]; IT): long lasting effect by the IT route | effect on allodynia thresholds after IT delivery ([1]; IT, lidocaine 500 μg, MEGX 500 μg, 3-OH L 58 μg): suppressed allodynia after IT administration; also recorded: significantly effective at suppressing allodynia | duration of significant effect on allodynia, SD rats ([2]; 3-OHL 15 mg/kg i.p., N=6, P<0.05, followed for 7 days): up to 7 days | magnitude and duration of effect of 15 mg/kg 3-OHL relative to 60 mg/kg lidocaine in SD rats ([2]; i.p. (FIG. 7)): apparently shorter duration | effect on tactile allodynia, SD rats ([2]; single i.p. dose, lidocaine 60 mg/kg, 3-OHL 15 mg/kg (P<0.05)): persistently reduced allodynia in both strains; also recorded: persistent suppression of allodynia | 3-hydroxylation / production of 3-OH L in rats [3]: Some species of rats predominantly produce 3-OH L | enzyme producing the metabolite 3-OH L (P450 PA(P45OIA2) enzyme): produced by the P450 PA(P45OIA2) enzyme | PWT after infusion ([4]; 3-OH L IV in DMSO, 20 mg/kg total (FIG. 2), N=4, baseline 1.57±0.5 g, P=<0.0001): 15 ± 0 g | duration of effect on allodynia, IV route ([4]; IV): not by the IV route | potency and onset of allodynia suppression relative to lidocaine ([4]; IV 3-OH L compared with parent compound): more potent with regard to this effect; also recorded: far more rapid onset | allodynia suppression by IV delivery ([4]; IV, N=4): highly active when administered intravenously; also recorded: both potent and effective at suppressing allodynia; also recorded: complete normalization | duration of significant effect on allodynia, DA rats ([5]; 3-OHL 15 mg/kg i.p., N=5, P<0.002, followed for 7 days): up to 7 days | effect on tactile allodynia, DA rats ([5]; single i.p. dose, lidocaine 60 mg/kg, 3-OHL 15 mg/kg (P<0.002)): persistently reduced allodynia in both strains; also recorded: persistent suppression of allodynia | production of 3-OH L in humans [6]: humans do produce some 3-OH L | production of 3-OH L in humans ([6]; listed as 3-OHL): very small quantities
